{
  "source": "patent US9445596B2",
  "about": "“Small molecule compounds for the control of nematodes” (California Institute of Technology, priority 2011, dated 2016)",
  "key": {"C. elegans": {"tested_on": "C. elegans", "conditions": "shown previously; cited from earlier work"}, "[1]": {"tested_on": "C. elegans hermaphrodites and males", "conditions": "cited from earlier work"}, "[2]": {"tested_on": "several of the tested nematode species", "assay": "Retention assay, several nematode species", "assay_type": "in vivo", "conditions": "1 nM, 1 μM and 1 mM tested", "protocol": "OP50 E. coli was grown on a standard 5 cm agar plate (made with standard Nematode Growth Medium). The bacterial lawn was 16 mm in diameter and was grown overnight at 20° C. before being used in trials. Two 4 mm spots (0.6 μL) were placed on opposite sides of the bacterial lawn (using a transparent template to guide spot placement), and several minutes elapsed for the liquid to settle in before placing nematodes down on the assay. Recording began immediately upon worm placement. 0.6 μL of the control was placed on one side of the lawn, and 0.6 μL of the experimental cue was placed on the other side of the lawn, changing the location of the cue throughout trials between left/right and top/bottom to avoid bias.\nNematodes were isolated by gender at the L4 stage the day before being used in trials as developed adults. Worms were evenly divided and placed at two points equidistant from the foci of the scoring region. Trials were recorded for 20 minutes, and frames were collected for analysis at 1 frame per second. Results were averaged from at least three different trials. For every nematode species in this study, a different total number of worms (using water in both scoring regions) was tested to determine the minimum number of worms necessary for consistent unbiased results over a 20 minute trial. The total number of worms used in the multiple species assays depended on that species' optimal parameters. 10 worms were used for P. redivivus males and females, 20 worms were used for C. elegans males and O. dolichuridae males, and 14 worms were used for S. glaseri males. The Automated Software was used to compare worm occupancy in each scoring region over time, and the Chemotaxis Index (Bargmann et al., Cell 74:515-27 (1993), which is hereby incorporated by reference in its entirety) was adapted to score preference or avoidance to each ascaroside.\nA video camera attached to the microscope produced a digital video stream, which was then analyzed. The ratio of the time the average worm spent in each region of interest was calculated for every trial. For ease of implementation, all worms in a single experiment were assumed to be roughly the same size. Thus worm pixels were counted instead of whole worms, allowing fractions of a worm in the region of interest to be taken into account. It also eliminated the need for a shape-based worm identification algorithm, and allowed each frame to be analyzed independently. A band-pass filter was applied to each frame to eliminate the effect of uneven lighting and also accentuate the worms against the background. The worm was then identified after thresholding the filtered image. Throughout each experiment, the locations and sizes of the regions of interest were known. Through the filtering described above, it is known which pixels are occupied by worms and which ones are not. Thus, the ratio of worm-pixels to all pixels inside the region of interest can be calculated to produce the worm-occupancy ratio. This calculation was done for every frame, giving a plot output of worm-occupancy ratio vs. time for each region."}, "C. elegans males": {"tested_on": "C. elegans males", "assay": "Attraction assay (long-range, point source)", "assay_type": "in vivo", "conditions": "point source on 10 cm plate", "protocol": "10 cm standard chemotaxis plates were prepared (Bargmann et al., Cell 74:515-27 (1993), which is hereby incorporated by reference in its entirety) and stored at 4° C. until the day before use. Standard 1 cm-diameter copper pipes were sectioned into 1 cm-tall segments to use for the holding chambers. The females/hermaphrodites were isolated overnight, washed 3 times in M9 buffer, and then allowed to wander on a plate pre-conditioned with 50 uL of 1000× streptomycin for 2 hours to kill any bacteria that might produce a false positive attractant. The nematodes were then washed 3 times, and the supernatant from the last wash was placed in a copper chamber, as the control, 1 cm from the border of the 10 cm plate. The nematodes were suspended in M9 within the copper chamber, 1 cm from the border opposite the control chamber. After 6 hours, they were subsequently removed and replaced with 3 μL of 1M sodium azide. 100 C. elegans adult males were isolated overnight, washed several times in ddH2O, and placed at the center of the agar plate. After several hours, males paralyzed within 2 cm of each region were scored. The Chemotaxis Index (Bargmann et al., Cell 74:515-27 (1993), which is hereby incorporated by reference in its entirety) was then used to score male chemotaxis to either point source."}, "[3]": {"tested_on": "P. pacificus strain RSB020", "assay": "Mouth-form dimorphism assay", "assay_type": "in vivo, Pristionchus pacificus", "protocol": "Mouth-form dimorphism assays were performed using P. pacificus strain RSB020. The synthetic compounds dissolved in ethanol (0.5 mM) were diluted with water to make 100 μl solution and subsequently added to 3 mL NGM-agar (1 μM final concentration). The assay plates were seeded with 50 μl OP50 culture in LB medium and incubated overnight at 20° C. to allow bacterial growth. Each replicate included the progeny of two mothers, which were picked as adult hermaphrodites of a consistent age (carrying 4-6 eggs) and which were all from the same P. pacificus culture plate. Following the placement of mothers on assay plates, plates were kept at 20° C. for six days, such that the entire broods were adults at the time of screening. A random sample of 50 hermaphrodite progeny was screened per plate. All animals were screened by differential interference contrast (DIC) microscopy on a Zeiss Axiskop. The following discrete characters were used to discriminate eurystomatous from stenostomatous individuals, respectively: (1) claw-shaped vs. flint-shaped (i.e. dorsoventrally symmetrical) dorsal tooth; (2) presence vs. absence of a subventral tooth; (3) strongly vs. weakly sclerotized stomatal walls. No intermediate mouth-forms were observed. Experiments were conducted in triplicate for each treatment. In assays of responses to compounds of several concentrations (1, 0.3, 0.1, 0.03, 0.01 μM final concentrations), experiments were performed as described above, with the following modifications. To allow greater resolution of responses to lower concentrations, 60 randomly screened individuals in each of five replicates per concentration per compound were assayed. All concentration-curve experiments were performed in parallel using mothers picked randomly from the same two source populations. To prepare large numbers of individual mothers for these experiments, source populations were established from virgin hermaphrodites to constrain the presence of males and were conditioned to well-fed and ambient conditions for at least one generation before mothers were picked for the assays."}, "P. pacificus": {"tested_on": "P. pacificus", "assay": "Dauer formation assay", "assay_type": "in vivo, Pristionchus pacificus", "conditions": "synthetic samples; first assayed at 1 μM", "protocol": "Dauer formation assays were performed as described in Ogawa et al., Curr. Biol. 19:67-71 (2009), which is hereby incorporated by reference in its entirety, using heat- or kanamycin-killed E. coli OP50. Synthetic compounds were dissolved in ethanol (0.5 mM, stock solution) and combined with water to make a […] and subsequently added to 3 mL NGM-agar without peptone ([…], 0.3, 0.1 μM final concentrations)."}, "[4]": {"tested_on": "C. elegans hermaphrodites and males", "assay": "Spot attraction assay", "assay_type": "in vivo", "protocol": "The spot attraction assays were conducted according to a previously reported method (Pungaliya et al., PNAS 106:7708-13 (2009); Srinivasan et al., Nature 454:1115-18 (2008), which are hereby incorporated by reference in their entirety). For both C. elegans hermaphrodites and males, 50-60 worms were harvested daily at the fourth larval stage (L4) and stored segregatedly by sex at 20° C. overnight, to be used as young adults the following day. For the competition experiments, two conditions were used: 120 nM ascr#3 and 10 nM icas#3 (Condition 1), or 12 μM ascr#3 and 1 μM icas#3 (Condition 2) in water containing 10% ethanol. Aliquots were stored at −20° C. in 20 μL tubes. 10% ethanol in water was used as control.\nAttraction assays with hbas#3 were conducted as previously reported (Srinivasan et al., Nature 454:1115-18 (2008); Pungaliya et al., Proc. Natl. Acad. Sci. U.S.A. 106:7708-13 (2009), which are hereby incorporated by reference in their entirety). For the attraction assays, 50-60 hermaphrodite worms were harvested daily at the early fourth larval stage (L4) and stored at 20° C. overnight to be used as young adults the following day. Hbas#3 was dissolved in water containing 10% ethanol. Aliquots were stored at −20° C. in 20 μL tubes. 10% ethanol in water was used as control."}, "[5]": {"tested_on": "C. elegans hermaphrodites", "assay": "Quadrant chemotaxis assay", "assay_type": "in vivo", "conditions": "see FIGS. 48A-B (spot attraction and quadrant chemotaxis assays); wild-type hermaphrodites", "protocol": "Chemotaxis to both non-indole and indole ascarosides was assessed on 10 cm four-quadrant petri plates (Wicks et al., Dev. Biol. 221:295-307 (2000), which is hereby incorporated by reference in its entirety). Each quadrant was separated from adjacent ones by plastic spacers (FIG. 1B). Pairs of opposite quadrants were filled with nematode growth medium (NGM) agar containing either indole ascarosides or non-indole ascarosides at different concentrations. Animals were washed gently in a S-basal buffer, placed in the center of a four-quadrant plate with ascarosides in alternating quadrants, and scored after 15 minutes and 30 minutes. A chemotaxis index was calculated as: (the number of animals on ascaroside quadrants minus the number of animals on buffer quadrants)/(total number of animals).\nChemotaxis to hbas#3 was assessed on 10 cm four-quadrant petri plates (Wicks et al., Dev. Biol. 221:295-307 (2000), which is hereby incorporated by reference in its entirety). Each quadrant was separated from adjacent ones by plastic spacers. Pairs of opposite quadrants were filled with nematode growth medium (NGM) agar containing different concentrations of hbas#3. Animals were washed gently in an S-basal buffer and placed in the center of a four-quadrant plate with ascarosides in alternating quadrants, and scored after 15 minutes and 30 minutes. A chemotaxis index was calculated as: (the number of animals on ascaroside quadrants minus the number of animals on buffer quadrants)/(total number of animals)."}, "[6]": {"conditions": "literature (Pungaliya 2009; Srinivasan 2008)"}, "[7]": {"conditions": "synthetic samples, first assayed at 1 μM"}},
  "note": "“Also recorded” adds a separate entry of the source.",
  "data": [
    {"smiles": "CC1O[C@@H](O[C@H](C)CCCC/C=C/C(=O)O)[C@@H](O)C[C@H]1O", "note": "(some centres unmarked) [ascr#3]", "values": [
      {"measurement": "promotion of dauer entry", "setting": "C. elegans", "result": "individually promote dauer entry"},
      {"measurement": "most active amount for attraction in C. elegans", "setting": "[1]; from 1 μM concentration, previous study (Srinivasan 2008)", "result": "~1", "unit": "pmol"},
      {"measurement": "response of social and solitary hermaphrodites", "setting": "[1]; high dauer-inducing concentrations, previous studies", "result": "strongly deter"},
      {"measurement": "attraction of males", "setting": "[1]; [6]", "result": "strongly attracts males"},
      {"measurement": "response of hermaphrodites", "setting": "[1]; [6]", "result": "repels hermaphrodites"},
      {"measurement": "preference for areas conditioned by the ascaroside", "setting": "[2]", "result": "preferred"},
      {"measurement": "lowest amount eliciting male attraction (as low as)", "setting": "C. elegans males", "result": 5, "unit": "femtomol"},
      {"measurement": "male attraction from a distance / chemotaxis towards a point source", "setting": "C. elegans males", "result": "chemotax towards"}
    ]},
    {"smiles": "C[C@H](CC/C=C/C(=O)O)O[C@@H]1O[C@@H](C)[C@H](O)C[C@H]1O", "note": "[ascr#7]", "values": [
      {"measurement": "preference for areas conditioned by the ascaroside", "setting": "[2]", "result": "preferred"}
    ]},
    {"smiles": "C[C@H](CCCCC(=O)O[C@@H]1C[C@@H](O)[C@H](O[C@H](C)CCCCC(=O)O)O[C@H]1C)O[C@@H]1O[C@@H](C)[C@H](O)C[C@H]1O", "note": "[dasc#1, (R)-6-(((2R,3R,5R,6S)-5-(((R)-6-(((2R,3R,5R,6S)-3,5-dihydroxy-6-methyltetrahydro-2H-pyran-2-yl)oxy)heptanoyl)oxy)-3-hydroxy-6-methyltetrahydro-2H-pyran-2-yl)oxy)heptanoic acid]", "values": [
      {"measurement": "induction of the eurystomatous mouth form", "setting": "[3]; [7]", "result": "regulates adult morphology; also recorded: strongly induce the eurystomatous mouth form"},
      {"measurement": "dauer induction", "setting": "P. pacificus", "result": "inactive in the dauer formation assay"}
    ]},
    {"smiles": "C[C@H](CCCC/C=C/C(=O)O)O[C@@H]1O[C@@H](C)[C@H](OC(=O)c2ccc(O)cc2)C[C@H]1O", "note": "[hbas#3, (8R)-(3′R-Hydroxy-5′R-(4-hydroxybenzoyloxy)-6′S-methyl-(2H)-tetrahydropyran-2′-yloxy)non-(2E)-enoic acid]", "values": [
      {"measurement": "attraction in the spot attraction assay", "setting": "[4]; wild-type (N2) hermaphrodites, dose dependent manner", "result": "attracted"},
      {"measurement": "lowest concentration with strong attraction of C. elegans (as low as)", "setting": "[5]", "result": 10, "unit": "femtomolar"}
    ]},
    {"smiles": "C[C@H](CCCCC(=O)O)O[C@@H]1O[C@@H](C)[C@H](OC(=O)c2c[nH]c3ccccc23)C[C@H]1O", "note": "[icas#1]", "values": [
      {"measurement": "attraction in the spot attraction assay", "setting": "[4]; 1 pmol, N2 hermaphrodites and him-5 males", "result": "attractive to both C. elegans sexes"},
      {"measurement": "attraction in the spot attraction assay", "setting": "[4]; high concentrations, males and hermaphrodites", "result": "attracted both males and hermaphrodites"}
    ]},
    {"smiles": "C[C@H](CCC(=O)O[C@@H](CNC(=O)CCC(=O)O)c1ccccc1)O[C@@H]1O[C@@H](C)[C@H](O)C[C@H]1O", "note": "[pasc#9, 4-(((R)-2-(((R)-4-(((2R,3R,5R,6S)-3,5-dihydroxy-6-methyltetrahydro-2H-pyran-2-yl)oxy)pentanoyl)oxy)-2-phenylethyl)amino)-4-oxobutanoic acid]", "values": [
      {"measurement": "induction of the eurystomatous mouth form", "setting": "[3]; high concentrations", "result": "weaker induction of the eurystomatous mouth form"}
    ]},
    {"smiles": "C[C@H](CCC(=O)O)O[C@@H]1O[C@@H](C)[C@H](OC(=O)[C@H](C)CNC(N)=O)C[C@H]1OC(=O)CCCCO[C@@H]1O[C@@H](C)[C@H](O)C[C@H]1O", "note": "[ubas#1, (R)-4-(((2R,3R,5R,6S)-3-((5-(((2R,3R,5R,6S)-3,5-dihydroxy-6-methyltetrahydro-2H-pyran-2-yl)oxy)pentanoyl)oxy)-6-methyl-5-(((R)-2-methyl-3-ureidopropanoyl)oxy)tetrahydro-2H-pyran-2-yl)oxy)pentanoic acid]", "values": [
      {"measurement": "induction of the eurystomatous mouth form", "setting": "[3]; [7]", "result": "inactive"}
    ]}
  ]
}
